Reference: patent publication US6358885B1, “Substituted phenylheterocyclic herbicides” (Mississippi State University, priority 1992, dated 2002)

Assays:
wild buckwheat = assay: Test C preemergence/postemergence greenhouse plant response rating 0 to 100; format: in vivo, Polygonum convolvulus; details: POSTEMERGENCE
Excerpt: (§1) The compounds evaluated in this test were formulated in a non-phytoxic solvent and applied to the soil surface before plant seedlings emerged (preemergence application), to water that covered the soil surface (flood application), and to plants that were in the one-to-four leaf stage (postemergence application). A sandy loam soil was used for the preemergence and postemergence tests, while a silt loam soil was used in the flood test. Water depth was approximately 2.5 cm for the flood test and was maintained at this level for the duration of the test. Plant species in the preemergence and postemergence tests consisted of barley (Hordeum vulgare), bedstraw (Galium aparine), blackgrass (Alopecurus myosuroides), chickweed (Stellaria media), corn (Zea mays), cotton (Gossypium hirsutum), crabgrass (Digitaria sanguinalis), downy brome (Bromus tectorum), giant foxtail (Setaria faberii), lambsquarters (Chenopodium album), morningglory (Ipomoea hederacea), pigweed ([…]), rape (Brassica napus), ryegrass (Lolium multiflorum), sorghum (Sorghum bicolor), soybean (Glycine max), speedwell (Veronica persica), sugar beet (Beta vulgaris), velvetleaf (Abutilon theophrasti), wheat (Triticum aestivum), wild buckwheat (Polygonum convolvulus), and wild oat (Avena fatua). All plant species were planted one day before application of the compound for the preemergence portion-of this test. Plantings of these species were adjusted to produce plants of appropriate size for the post-emergence portion of the test. […] All plant species were grown using normal greenhouse practices. Visual evaluations of injury expressed on treated plants, when compared to untreated controls, were recorded approximately fourteen to twenty one days after application of the test compound. […] A dash (-) response means no test result.

barnyardgrass = assay: Test B preemergence/postemergence greenhouse plant response rating 0 to 10; format: in vivo, Echinochloa crus-galli; details: 0 to 10 scale
Method in brief: (§2)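 Postemergence treatment of plants two to eighteen cm tall ran alongside preemergence treatment of planted seed, each using compound in a non-phytotoxic solvent.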

barley = assay: as above; format: in vivo, Hordeum vulgare; details: 0 to 10 scale
Method in brief: as §2

chickweed [1] = assay: as above; format: in vivo, Stellaria media; details: 0 to 10 scale
Method in brief: as §2

giant foxtail [2] = assay: as above; format: in vivo, Setaria faberii; details: 0 to 10 scale
Method in brief: as §2

chickweed [3] = assay: Test C preemergence/postemergence greenhouse plant response rating 0 to 100; format: in vivo, Stellaria media; details: POSTEMERGENCE
Excerpt: as §1

crabgrass [4] = assay: Test B preemergence/postemergence greenhouse plant response rating 0 to 10; format: in vivo, Digitaria spp.; details: 0 to 10 scale
Method in brief: as §2

wild oat = assay: Test C preemergence/postemergence greenhouse plant response rating 0 to 100; format: in vivo, Avena fatua; details: POSTEMERGENCE
Excerpt: as §1

corn = assay: Test B preemergence/postemergence greenhouse plant response rating 0 to 10; format: in vivo, Zea mays; details: Rate 50 g/ha, 0 to 10 scale
Method in brief: as §2

wheat = assay: as above; format: in vivo, Triticum aestivum; details: 0 to 10 scale
Method in brief: as §2

rape = assay: as above; format: in vivo, Brassica napus; details: 0 to 10 scale
Method in brief: as §2

bedstraw = assay: Test C preemergence/postemergence greenhouse plant response rating 0 to 100; format: in vivo, Galium aparine; details: POSTEMERGENCE
Excerpt: as §1

sorghum = assay: Test B preemergence/postemergence greenhouse plant response rating 0 to 10; format: in vivo, Sorghum bicolor; details: 0 to 10 scale
Method in brief: as §2

giant foxtail [5] = assay: Test C preemergence/postemergence greenhouse plant response rating 0 to 100; format: in vivo, Setaria faberii; details: POSTEMERGENCE
Excerpt: as §1

downy brome = assay: as above; format: in vivo, Bromus tectorum; details: POSTEMERGENCE
Excerpt: as §1

crabgrass [6] = assay: as above; format: in vivo, Digitaria sanguinalis; details: POSTEMERGENCE
Excerpt: as §1

C#CCN1C(=O)COc2cc(F)c(-c3nn4c(c3Br)CCCC4)cc21 [Compound 56]
70: Plant response rating (0 to 100), Bedstraw (bedstraw; Rate 1 g/ha) | Plant response rating Downy Brome (downy brome; 62 g/ha, 0 to 100 scale)
30: Plant response rating (0 to 100), Wild oat (wild oat; Rate 1 g/ha) | Plant response rating (0 to 100), Giant foxtail (giant foxtail [5]; Rate 16 g/ha)
65: Plant response rating (0 to 100), Chickweed (chickweed [3]; Rate 1 g/ha)
2: Plant response rating, Barley (barley; PREEMERGENCE, Rate 50 g/ha) | Plant response rating, Sorghum (sorghum; POSTEMERGENCE, Rate 50 g/ha)
100: Plant response rating, Wild buckwheat (wild buckwheat; 62 g/ha, 0 to 100 scale) | Plant response rating (0 to 100), Wild buckwheat (wild buckwheat; Rate 1 g/ha) | Plant response rating (0 to 100), Wild buckwheat (wild buckwheat; Rate 4 g/ha) | Plant response rating (0 to 100), Wild buckwheat (wild buckwheat; Rate 16 g/ha) | Plant response rating, Chickweed (chickweed [3]; 62 g/ha, 0 to 100 scale) | Plant response rating (0 to 100), Chickweed (chickweed [3]; Rate 16 g/ha) | Plant response rating, Bedstraw (bedstraw; 62 g/ha, 0 to 100 scale)
0: Plant response rating, Barnyardgrass (barnyardgrass; PREEMERGENCE, Rate 10 g/ha) | Plant response rating, Barnyardgrass (barnyardgrass; PREEMERGENCE, Rate 50 g/ha) | Plant response rating, Barley (barley; PREEMERGENCE, Rate 10 g/ha) | Plant response rating, Giant foxtail (giant foxtail [2]; PREEMERGENCE, Rate 10 g/ha) | Plant response rating, Giant foxtail (giant foxtail [2]; PREEMERGENCE, Rate 50 g/ha) | Plant response rating, Crabgrass (crabgrass [4]; PREEMERGENCE, Rate 10 g/ha) | Plant response rating, Corn (corn; PREEMERGENCE) | Plant response rating, Sorghum (sorghum; PREEMERGENCE, Rate 50 g/ha) | Plant response rating (0 to 100), Crabgrass (crabgrass [6]; Rate 1 g/ha) | Plant response rating (0 to 100), Crabgrass (crabgrass [6]; Rate 4 g/ha)
20: Plant response rating, Crabgrass (crabgrass [6]; 62 g/ha, 0 to 100 scale)
6: Plant response rating, Barley (barley; POSTEMERGENCE, Rate 10 g/ha) | Plant response rating, Giant foxtail (giant foxtail [2]; POSTEMERGENCE, Rate 50 g/ha) | Plant response rating, Crabgrass (crabgrass [4]; POSTEMERGENCE, Rate 50 g/ha)
3: Plant response rating, Barnyardgrass (barnyardgrass; POSTEMERGENCE, Rate 10 g/ha) | Plant response rating, Crabgrass (crabgrass [4]; PREEMERGENCE, Rate 50 g/ha) | Plant response rating, Corn (corn; POSTEMERGENCE) | Plant response rating, Rape (rape; PREEMERGENCE, Rate 50 g/ha) | Plant response rating, Sorghum (sorghum; POSTEMERGENCE, Rate 10 g/ha)
40: Plant response rating (0 to 100), Wild oat (wild oat; Rate 4 g/ha) | Plant response rating, Giant foxtail (giant foxtail [5]; 62 g/ha, 0 to 100 scale) | Plant response rating (0 to 100), Downy Brome (downy brome; Rate 1 g/ha)
10: Plant response rating, Chickweed (chickweed [1]; POSTEMERGENCE, Rate 50 g/ha) | Plant response rating, Chickweed (chickweed [1]; PREEMERGENCE, Rate 50 g/ha) | Plant response rating, Rape (rape; POSTEMERGENCE, Rate 10 g/ha) | Plant response rating, Rape (rape; POSTEMERGENCE, Rate 50 g/ha) | Plant response rating (0 to 100), Giant foxtail (giant foxtail [5]; Rate 1 g/ha) | Plant response rating (0 to 100), Giant foxtail (giant foxtail [5]; Rate 4 g/ha) | Plant response rating (0 to 100), Crabgrass (crabgrass [6]; Rate 16 g/ha)
4: Plant response rating, Barnyardgrass (barnyardgrass; POSTEMERGENCE, Rate 50 g/ha) | Plant response rating, Giant foxtail (giant foxtail [2]; POSTEMERGENCE, Rate 10 g/ha) | Plant response rating, Crabgrass (crabgrass [4]; POSTEMERGENCE, Rate 10 g/ha) | Plant response rating, Wheat (wheat; PREEMERGENCE, Rate 50 g/ha)
50: Plant response rating (0 to 100), Wild oat (wild oat; Rate 16 g/ha) | Plant response rating (0 to 100), Downy Brome (downy brome; Rate 4 g/ha)
9: Plant response rating, Chickweed (chickweed [1]; POSTEMERGENCE, Rate 10 g/ha) | Plant response rating, Chickweed (chickweed [1]; PREEMERGENCE, Rate 10 g/ha)
7: Plant response rating, Barley (barley; POSTEMERGENCE, Rate 50 g/ha) | Plant response rating, Wheat (wheat; POSTEMERGENCE, Rate 10 g/ha) | Plant response rating, Wheat (wheat; POSTEMERGENCE, Rate 50 g/ha)
80: Plant response rating (0 to 100), Chickweed (chickweed [3]; Rate 4 g/ha) | Plant response rating (0 to 100), Bedstraw (bedstraw; Rate 4 g/ha)
60: Plant response rating, Wild oat (wild oat; 62 g/ha, 0 to 100 scale) | Plant response rating (0 to 100), Downy Brome (downy brome; Rate 16 g/ha)
95: Plant response rating (0 to 100), Bedstraw (bedstraw; Rate 16 g/ha)
